Laboratory results from US20220127262A1, “CRYSTALLINE FORM OF A CDK INHIBITOR” (Pfizer Inc., priority 2019, published 2022).

Assays:
Type in all cases: physicochemical
[1] = Photostability study under ICH conditions, light source option 2; settings: for Total impurities: ICH photostability
Source text: A photostability study was run under ICH conditions using light source option 2 ICH conditions.
(§1) Stability samples of drug substance were packaged in double low-density polyethylene (LDPE) bags and desiccant within high-density polyethylene (HDPE) drum. Photostability samples were stored in a quartz Petri dish with a quartz lid.

[2] = Solid-state chemical stability (long term and accelerated storage), total impurities by HPLC
Procedure: The chemical stability of PF-06873600 anhydrous free base (Form 1) was investigated at long term storage conditions (25° C./60% RH) for an extended time period and under accelerated stability conditions (40° C./75% RH) for a shorter period. Stability testing was conducted at 25° C./60% RH for 24 months (long term conditions) and at 40° C./75% RH for 6 months (accelerated conditions) and evaluated for appearance and purity by HPLC.
as §1

[3] = Water sorption and desorption, automated vapor sorption analyzer
Procedure: Water sorption and desorption studies were conducted on automated vapor sorption analyzer (TA instruments Q5000 SA). The microbalance was calibrated using a 100 mg standard weight. The relative humidity sensor was calibrated at 5.0, 11.3, 32.8, 52.8, 75.3, and 84.3% RH (25° C.) using saturated salt solutions. Approximately 30 mg of the powder sample was placed in the quartz sample holder and dried at ≤3% relative humidity (RH) at 25° C. The attainment of equilibrium was assumed when the weight change of the sample was <0.001 wt % in 5 min or by a maximum equilibration time of 120 minutes. […] The attainment of equilibrium was again assumed when the weight change of the sample was <0.001 wt % in 5 min or by a maximum equilibration time of 120 minutes. The weight gain at each of the % RH steps is based on the weight after the initial drying step. The data were analyzed using Universal Analysis software V4.5A.

Total impurities ([1]; light source option 2, 8 days): 0.64%
Total impurities ([1]; light source option 2, Initial): 0.58%
Total impurities ([2]; 25° C./60% RH, 3 mos.): 0.49%
Total impurities ([2]; 25° C./60% RH, 6 mos.): 0.48%
Total impurities ([2]; 25° C./60% RH, 12 mos.): 0.51%
Total impurities ([2]; 25° C./60% RH, 24 mos.): 0.59%
Total impurities ([2]; 25° C./60% RH, Initial): 0.5%
Total impurities ([2]; 40° C./75% RH, 3 mos.): 0.47%
Total impurities ([2]; 40° C./75% RH, 6 mos.): 0.47%
Total impurities ([2]; 40° C./75% RH, Initial): 0.5%
Water Content, Desorption ([3]; 25° C., 10% RH): −0.12 % w/w
Water Content, Sorption ([3]; 25° C., 10% RH): 0.00 % w/w
Water Content, Desorption ([3]; 25° C., 20% RH): −0.1 % w/w
Water Content, Sorption ([3]; 25° C., 20% RH): 0.02 % w/w
Water Content, Desorption ([3]; 25° C., 30% RH): −0.07 % w/w
Water Content, Sorption ([3]; 25° C., 30% RH): 0.04 % w/w
Water Content, Desorption ([3]; 25° C., 40% RH): −0.06 % w/w
Water Content, Sorption ([3]; 25° C., 40% RH): 0.06 % w/w
Water Content, Desorption ([3]; 25° C., 50% RH): −0.04 % w/w
Water Content, Sorption ([3]; 25° C., 50% RH): 0.07 % w/w
Water Content, Desorption ([3]; 25° C., 60% RH): −0.03 % w/w
Water Content, Sorption ([3]; 25° C., 60% RH): 0.07 % w/w
Water Content, Desorption ([3]; 25° C., 70% RH): −0.01 % w/w
Water Content, Sorption ([3]; 25° C., 70% RH): 0.08 % w/w
Water Content, Desorption ([3]; 25° C., 80% RH): 0.02 % w/w
Water Content, Sorption ([3]; 25° C., 80% RH): 0.08 % w/w
Water Content, Desorption ([3]; 25° C., 90% RH): 0.04 % w/w
Water Content, Sorption ([3]; 25° C., 90% RH): 0.04 % w/w
Change in solid form ([3]; after the water sorption study): no change in solid form
Weight gain ([3]; up to 90% RH): no significant weight gain
Hygroscopicity ([3]; water sorption study, 25° C.): not hygroscopic
SMILES: C[C@@]1(O)CCC[C@H]1n1c(=O)c(C(F)F)cc2cnc(NC3CCN(S(C)(=O)=O)CC3)nc21 [PF-06873600 free base (Form 1), 6-(difluoromethyl)-8-[(1R,2R)-2-hydroxy-2-methylcyclopentyl]-2-{[1-(methylsulfonyl)piperidin-4-yl]amino}-pyrido[2,3-d]pyrimidin-7(8H)-one]
Appearance after photostability exposure ([1]; samples directly exposed to UV/Fluorescent conditions): change in appearance from an off-white powder to a pale-colored powder
